Experimental findings from EP0300107A1, “Ester, thioester and amide derivatives of oxolinic acid, process for their synthesis and their therapeutical use” (VETOQUINOL S.A., priority 1987, dated 1989) are described below.

A short description of data set [1]: Presence of the active principle in tissues after intramuscular injection in the rat. In kind it is in vivo. As to conditions: i.m., 20 mg/kg en équivalent acide oxolinique. How it is done:
d/ Détermination de la présence du principe actif dans les tissus après injection par voie intramusculaire chez le rat
Dose administrée : 20 mg/kg en équivalent acide oxolinique TABLEAU VI

Data set [2] in a line: Plasma levels after intravenous injection in the dog. Also noted: species or system chien. As to conditions: in vivo. On the procedure: b/ Détermination des taux plasmatiques après injection intraveineuse chez le chien
Dose administrée : 15 mg/kg en équivalent acide oxolinique TABLEAU IV

Data set [3] can be described thus: Solubility in water and in usual solvents. The conditions noted are these: qualitative statement.
Data set [4] in a line: Plasma levels after intramuscular injection in the dog. More on the design: species or system chien. The conditions noted are these: in vivo; for concentration at 0.5 h / concentration at 1 h / concentration at 2 h / concentration at 4 h / concentration at 6 h / concentration at 12 h / concentration at 24 h: dog, im. On the procedure: a/ Détermination des taux plasmatiques après injection par voie intramusculaire chez le chien
Dose administrée : 15 mg/kg en équivalent acide oxolinique (Comparaison avec l'activité pharmacocinétique de l'acide oxolinique) TABLEAU III

Data set [5] in a line: Plasma levels after intramuscular injection in the rat. In kind it is in vivo. On the procedure: c/ Détermination des taux plasmatiques après injection par voie intramusculaire chez le rat
Dose administrée : 20 mg/kg en équivalent acide oxolinique TABLEAU V

The nature of data set [6]: Hydrolysis kinetics at room temperature. In kind it is physicochemical. The source says:
Ainsi par exemple, l'étude cinétique à température ambiante de l'hydrolyse du composé JL 93V (stable en milieu faiblement acide et en milieu neutre) montre qu'il y a libération d'environ 50 % du principe actif (acide oxolinique) après 24 heures d'hydrolyse en milieu hydroxyde de sodium 0,001 M et coupure immédiate de la liaison ester en milieu hydroxyde de sodium 0,1 M. Cette liaison ester, tout comme d'ailleurs la liaison thioester ou amide, apparaît donc comme étant suffisamment labile par hydrolyse pour libérer le principe actif dans l'organisme.

Data set [7] is described as follows: Acute toxicity, lethal dose 50 in the mouse. The conditions noted are these: in vivo, souris, read-out: DL 50 (the source's name). On the procedure: La toxicité des composés selon l'invention a également été étudiée par la mesure de la dose léthale 50 (DL 50) chez la souris et ils se sont révélés être satisfaisants sur ce plan. A titre d'exemple, on notera que pour le composé JL 93V, la DL 50 (souris; voie intraveineuse) est de 240 mg/kg et que la DL 50 (souris; voie orale) est de 1120 mg/kg.

Each structure is given as a SMILES string. Like-named read-outs stand apart in the source and are kept apart here.

Take `CCn1cc(C(=O)O)c(=O)c2cc3c(cc21)OCO3` [Acide oxolinique, acide oxolinique, reference compound]: the “Présence dans les tissus (foie, poumons, reins, muscles)” value in data set [1] (1 h), in data set [1] (3 h), in data set [1] (6 h) and in data set [1] (24 h) was “nulle” in each case. Further, the concentration at 0.5 h in data set [2] (chien, i.v., 15 mg/kg en équivalent acide oxolinique, 0,5 h, read-out: Taux plasmatiques) amounted to 36800 ng/mL; in data set [4] (chien, i.m., 15 mg/kg en équivalent acide oxolinique, 0,5 h, read-out: Taux plasmatiques) it was 6060 ng/mL. Besides, the concentration at 1 h in data set [2] (chien, i.v., 15 mg/kg en équivalent acide oxolinique, 1 h, read-out: Taux plasmatiques) was found to be 29800 ng/mL; in data set [4] (chien, i.m., 15 mg/kg en équivalent acide oxolinique, 1 h, read-out: Taux plasmatiques), 6550 ng/mL; in data set [5] (in vivo, im, 20 mg/kg en équivalent acide oxolinique, 1 h, read-out: Taux plasmatiques) it was 785 ng/mL. For the same compound, the concentration at 2 h was 22300 ng/mL in data set [2] (chien, i.v., 15 mg/kg en équivalent acide oxolinique, 2 h, read-out: Taux plasmatiques) and 5460 ng/mL in data set [4] (chien, i.m., 15 mg/kg en équivalent acide oxolinique, 2 h, read-out: Taux plasmatiques). Moreover, the concentration at 6 h in data set [2] (chien, i.v., 15 mg/kg en équivalent acide oxolinique, 6 h, read-out: Taux plasmatiques) was 8890 ng/mL; in data set [4] (chien, i.m., 15 mg/kg en équivalent acide oxolinique, 6 h, read-out: Taux plasmatiques), 2470 ng/mL. In addition, the concentration at 8 h in data set [2] (chien, i.v., 15 mg/kg en équivalent acide oxolinique, 8 h, read-out: Taux plasmatiques) is 5650 ng/mL. In addition, the concentration at 10 h in data set [2] (chien, i.v., 15 mg/kg en équivalent acide oxolinique, 10 h, read-out: Taux plasmatiques) worked out at 3590 ng/mL. In addition, the concentration at 24 h is 150 ng/mL in data set [2] (chien, i.v., 15 mg/kg en équivalent acide oxolinique, 24 h, read-out: Taux plasmatiques) and 980 ng/mL in data set [4] (chien, i.m., 15 mg/kg en équivalent acide oxolinique, 24 h, read-out: Taux plasmatiques). Moreover, in data set [3], the “solubilité dans l'eau ou les solvants organiques habituellement utilisés en galénique” value is on record as “relativement peu soluble”. Besides, the concentration at 4 h in data set [4] (chien, i.m., 15 mg/kg en équivalent acide oxolinique, 4 h, read-out: Taux plasmatiques) was 3030 ng/mL. For the same compound, the concentration at 12 h in data set [4] (chien, i.m., 15 mg/kg en équivalent acide oxolinique, 12 h, read-out: Taux plasmatiques) came to 1430 ng/mL. Besides, the Taux plasmatiques entry in data set [5] (i.m., 20 mg/kg en équivalent acide oxolinique, 6 h) is reported as “nul”; in data set [5] (i.m., 20 mg/kg en équivalent acide oxolinique, 24 h), “nul”. In addition, the concentration at 3 h in data set [5] (in vivo, im, 20 mg/kg en équivalent acide oxolinique, 3 h, read-out: Taux plasmatiques) was 225 ng/mL.
On to `CCOCCOCCOC(=O)c1cn(CC)c2cc3c(cc2c1=O)OCO3` [JL 93V], for which the degraded at 24 h in data set [6] (0.001 m naoh, room temperature, after 24 heures of hydrolysis in hydroxyde de sodium 0,001 M, read-out: libération du principe actif (acide oxolinique)) was around 50%. For the same compound, in data set [6] (milieu faiblement acide and milieu neutre), the stabilité result is “stable”. Also, the “coupure de la liaison ester” value in data set [6] (room temperature, hydroxyde de sodium 0,1 M) is on record as “immédiate”. In data set [2] (15 mg/kg), this compound registered a concentration at 0.5 h of 33600 ng/mL, a concentration at 1 h of 30200 ng/mL, a concentration at 2 h of 23400 ng/mL and a concentration at 6 h of 10900 ng/mL. In data set [2] (15 mg/kg), this compound displayed a concentration at 8 h of 8230 ng/mL, a concentration at 10 h of 6350 ng/mL and a concentration at 24 h of 1190 ng/mL. For the same compound, in data set [7] (iv, voie intraveineuse), the LD50 is 240 mg/kg. For the same compound, the LD50 in data set [7] (po, voie orale) stood at 1120 mg/kg. In data set [4] (15 mg/kg), the concentration at 0.5 h was determined as 7250 ng/mL, the concentration at 1 h stood at 16100 ng/mL, the concentration at 2 h was determined as 15600 ng/mL and the concentration at 4 h is 10800 ng/mL. In data set [4] (15 mg/kg), the concentration at 6 h stood at 6080 ng/mL, the concentration at 12 h came out at 2310 ng/mL, the concentration at 24 h turned out to be 450 ng/mL and the “aire sous la courbe (taux en fonction du temps)” value was “plus importante”. In data set [5] (in vivo, 20 mg/kg), the Taux plasmatiques result is on record as “nul” and the “aire sous la courbe” value is “plus importante”. In data set [5] (in vivo, im, 20 mg/kg), this compound displayed a concentration at 1 h of 15700 ng/mL, a concentration at 3 h of 8780 ng/mL and a concentration at 6 h of 3420 ng/mL.
